Assay results reported in PMC6094047 (Antiviral Research, 2018).
Read-outs that look alike come from different tables or passages of the source.

Key:
[1] = test system: A(H3N2) virus neuraminidase (NA); format: biochemical, influenza A(H3N2) virus
[2] = test system: influenza; set-up: method as in Rossignol, 2018; details: vs placebo, twice daily for 5 days, subjects enrolled within 36 h of symptom onset and followed up daily; ref Rossignol, 2018; cited from earlier work
[3] = test system: B/Victoria-lineage virus neuraminidase (NA); details: cited from earlier work
[4] = test system: B/Yamagata-lineage virus neuraminidase (NA); set-up: method as in Gubareva et al., 2017a; Monto et al., 2006; details: ref Gubareva et al., 2017a, Monto et al., 2006, cited from earlier work
[5] = test system: uncomplicated influenza; set-up: method as in Hayden, 2018; details: phase III, given <48 h after onset of symptoms; ref Hayden, 2018; cited from earlier work
[6] = test system: uncomplicated influenza; details: phase III, ref Epstein, 2017; cited from earlier work
[7] = frequency of reported adverse events similar to placebo; cited from earlier work
[8] = test system: influenza; set-up: method as in Haffizula et al., 2014; details: 600 mg twice daily for five days, ref Haffizula et al., 2014, cited from earlier work
[9] = B/Victoria-lineage NA A245T, ref Leang et al., 2014
[10] = B/Victoria-lineage NA D197N, ref Gubareva et al., 1998, 2017b, Ison et al., 2006, Mishin et al., 2005

Q: With `[H]/N=C(\N)N[C@H]1C=C(C(=O)O)O[C@@H]([C@H](OC)[C@H](O)CO)[C@@H]1NC(C)=O` [Laninamivir] as the compound, how does the “IC50 fold-change compared to reference median IC50 values” [1] read?
A: Its value is 17 fold.

Q: Which “improvement in median time to alleviation of symptoms” value [2] does the source give for `CCOC(=O)C1=C[C@@H](OC(CC)CC)[C@H](NC(C)=O)[C@@H](N)C1` [Oseltamivir] here?
A: Its value is 50 h.

Q: What about the “inhibition phenotype associated with NA AAS (NI/RI/HRI)” value (shortened to “inhibition phenotype associated”) [3, 9] of the same compound?
A: The value was “RI (type B viruses 5- to 50-fold)”.

Q: And the “inhibition phenotype associated” value [3, 10]?
A: Its value is “RI (type B viruses 5- to 50-fold)”.

Q: And the “fold increase in IC50” value ([4]; B/Yamagata-lineage NA I221T)?
A: Its value is “greater than 5 fold”.

Q: With `CCC(CC)[C@H](NC(C)=O)[C@@H]1[C@H](O)[C@@H](C(=O)O)C[C@H]1N=C(N)N` [Peramivir] as the compound, how does the “IC50 fold-change compared to reference median IC50 values” [1] read?
A: Its value is 5.3 fold.

Q: What about the “inhibition phenotype (NI/RI/HRI)” value [1] of the same compound?
A: Its value is “NI (key: normal inhibition (NI) (type A viruses <10-fold; reduced inhibition (RI) (type A viruses 10- to 100-fold; highly reduced inhibition (HRI) (type A viruses >100-fold)”.

Q: And the “inhibition phenotype associated” value [3, 9]?
A: Its value is “RI (type B viruses 5- to 50-fold)”.

Q: What about the “inhibition phenotype associated” value [3, 10] of the same compound?
A: The value was “RI (type B viruses 5- to 50-fold)”.

Q: What about the “inhibition phenotype associated” value ([3]; B/Victoria-lineage NA K360E, D432G or H273Y, ref WHO-AVWG NAI substitution table) of the same compound?
A: The value was “RI (type B viruses 5- to 50-fold)”.

Q: What about the “inhibition phenotype associated” value ([4]; B/Yamagata-lineage NA I221V and I221T) of the same compound?
A: Its value is “RI (type B viruses 5- to 50-fold)”.

Q: Which “inhibition phenotype associated” value [3, 9] does the source give for `CC(=O)N[C@H]1[C@H]([C@H](O)[C@H](O)CO)OC(C(=O)O)=C[C@@H]1N=C(N)N` [Zanamivir] here?
A: Its value is “RI (type B viruses 5- to 50-fold)”.

Q: What about the “inhibition phenotype associated” value [3, 10] of the same compound?
A: The value was “RI (type B viruses 5- to 50-fold)”.

Q: With `O=C1c2c(O)c(=O)ccn2N([C@@H]2c3ccccc3SCc3c2ccc(F)c3F)[C@@H]2COCCN12` [baloxavir, Baloxavir] as the compound, how does the “alleviation of symptoms faster than placebo” value [5] read?
A: The value was 26.5 h.

Q: For `NC(=O)c1nc(F)c[nH]c1=O` [favipiravir, Favipiravir], which “reduction of median time to alleviation of symptoms compared to placebo” value [6] is on record?
A: Its value is 6 to 14 h.

Q: Which results are given for `CC(=O)Oc1ccccc1C(=O)Nc1ncc([N+](=O)[O-])s1` [nitazoxanide, Nitazoxanide]?
A: improvement in median time to alleviation of symptoms [2]: 50 h; tolerability, adverse events [7]: well tolerated; median improvement in alleviation of influenza symptoms ([8]; enrolled within 48 h of symptom onset, p = 0.0084): 22 h; virus shedding ([8]; p = 0.0006): significant reduction
